# Like-named read-outs stand apart in the source and are kept apart here.
# Experiments:
# hCB2R [1] = molecular target: T1, hCB2R (Homo sapiens, UniProt P34972); experiment: [3H]CP55,940 radioligand displacement assay, CHO cell membranes; format: binding; details: for displacement of [3H]CP55,940 at hCB2R: CHO membranes, 0.1 nM-10 μM compounds
# T1 construct: host or cells: HitHunter CHO-K1 cells
# Protocol: (§1) CHO cells stably expressing hCB1R or hCB2R were maintained at 37 °C and 5% CO2 in Gibco Ham’s F-12 nutrient mix (Fisher Scientific, Loughborough, UK ) supplemented with 2 mM L-glutamine, 10% fetal bovine serum (FBS), 0.6% penicillin−streptomycin (Fisher Scientific, Loughborough UK), and the disulfate salt of geneticin (G418) as previously described (Sigma-Aldrich, Poole, UK). For subsequent radioligand displacement assays, membranes were prepared by scraping cells from flasks, centrifuging the cells, and storing the cell pellet at −20 °C. When required for us, cell pellets were defrosted and diluted in tris buffer (50 mM Tris-HCl and 50 mM Tris-base). As we have described in previous studies, HitHunter (cAMP) and PathHunter (βarrestin2) CHO-K1 cells stably expressing hCB1R or hCB2R from DiscoveRx® (Eurofins, Fremont, CA, USA) were maintained at 37 °C, 5% CO2 in F-12 DMEM containing 10% FBS and 1% Pen/Strep with 800 µg/mL geneticin (HitHunter) or 800 µg/mL G418 and 300 µg/mL hygromycin B (PathHunter).
# (§2) We have previously described radioligand displacement assays in detail. […] Binding reactions were terminated by ice-cold tris binding buffer and subsequent vacuum filtration (24-well sampling manifold (Brandel cell harvester; Brandel Inc., Gaithersburg, MD, USA)) using Brandel GF/B filters soaked in wash buffer at 4 °C for at least 24 h. Filters were washed with 1.2 mL of tris-binding buffer six times, then oven-dried for 60 min before being incubated in 3 mL of scintillation fluid (Ultima Gold XR, PerkinElmer, Seer Green, Buckinghamshire, UK). Radioactivity was quantified by liquid scintillation spectrometry. All compounds were first prepared at 10 mM solutions in DMSO. The final vehicle concentration for assays was 0.1% DMSO. All assays were performed in duplicate.
# (§3) Estimates of Ki, EC50, and Emax were determined using non-linear regression three-parameters (GraphPad, Prism, v. 9.0).
# hCB1R = molecular target: T2, hCB1R (Homo sapiens, UniProt P21554); experiment: as above; format: binding; details: for displacement of [3H]CP55,940 at hCB1R: CHO membranes, 0.1 nM-10 μM compounds
# T2 construct: expressed in transfected cells; host or cells: CHO cells (membranes)
# Protocol: as §1, §2, §3
# hCB2R [2] = molecular target: T1, hCB2R; experiment: HitHunter cAMP assay: inhibition of FSK-stimulated cAMP accumulation in CHO cells; format: cell-based; details: for modulation of cAMP response: CHO cells expressing hCB2R
# Protocol: For the cAMP inhibition assay, cells were treated with 10 μM FSK and synthetized compounds for 90 min to assess compound concentration-dependent activity.
# as §1
# The quantification of FSK-stimulated cAMP accumulation using the DiscoveRx HitHunter assay (DiscoveRx, Eurofins, Fremont, CA, USA) has been described in detail previously elsewhere. Briefly, 20,000 cells/well were plated in low-volume 96-well plates and incubated overnight in Opti-MEM with 1% FBS at 37 °C and 5% CO2. The next day, the media were replaced with cell assay buffer (DiscoveRx). Immediately after this, the cells were simultaneously treated with 10 µM FSK and ligands for 90 min. Subsequent additions of cAMP antibody solution and cAMP working detection solutions followed the manufacturer’s directions (DiscoveRx) and cells were stored for 60 min at room temperature. cAMP solution A (DiscoveRx) was added according to the manufacturer’s directions followed by another 60 min room temperature incubation prior to chemiluminescence being measured on a Cytation5 plate reader (top read, gain 200, integration time 10,000 ms).
# as §3
# (§4) Data are fitted to a non−linear regression (three parameter model, GraphPad v. 9.0). Data are mean ± S.E.M. of 6 independent experiments performed in triplicate.
# hCB2R [3] = molecular target: T1, hCB2R; experiment: PathHunter β-arrestin2 recruitment assay in CHO cells; format: cell-based
# Protocol: Compounds FG158a, FG160a, FG161a, and LV62 were also evaluated for their ability to recruit β-arrestin2, since G protein-coupled receptors also interact with β-arrestin, which facilitates receptor internalization, recycling, degradation, and signaling.
# as §1
# The quantification of β-arrestin2 recruitment using the DiscoveRx PathHunter assay has been described by our group previously and is summarized here.. Twenty thousand cells/well were grown overnight in Opti-MEM containing 1% FBS at 37 °C and 5% CO2 in low-volume 96 well plates. The next day, cells were treated with compounds for 90 min at 37 °C. Detection solution was added to cells according to the manufacturer’s directions (DiscoveRx) and cells were stored for 60 min at room temperature. After this incubation, chemiluminescence was quantified on a Cytation5 plate reader (top read, gain 200, integration time 10,000 ms).
# as §3, §4
# SH-SY5Y cells [4] = experiment: Sulforhodamine B (SRB) cell viability assay; format: cell-based, human; details: for effect on cell viability: 24 h, 48 h and 72 h, 2.5–40 µM; for IC50: Homo sapiens, 72 h of treatment, SRB, cis/trans mixture
# Protocol: We tested the anti-proliferative activity of the novel CB2R agonists FG158a, FG160a, FG161a, and LV62 in neuroblastoma cell lines (Figure 4). The compounds were assayed as a mixture of cis and trans isomers. […] After 72 h of treatment, the effect was higher and could also be observed at lower concentrations. The inhibitory effect was confirmed in another neuroblastoma cell line, SK-N-BE cells.
# Human neuroblastoma SHSY5Y and SK-N-BE cell lines were grown in DMEM (GIBCO, Paisley, UK) and MEM (Sigma-Aldrich, St.Louis, MO, USA), respectively, supplemented with 2 mM l-glutamine, […], 50 units/mL penicillin and 10% heat-inactivated fetal bovine serum (FBS) in a humidified atmosphere (5% CO2 at 37 °C). Cells were detached as previously described with 0.25% trypsin (Sigma-Aldrich) at 70–80% confluence.
# (§5) Cells seeded for 24 h in triplicate in 96-well plates at a density of 8000 cells/well were left to adhere overnight. CB2R agonists were added to the culture in triplicate at concentrations ranging from 2.5–40 µM. After 24 h, 48 h, and 72 h, cells were fixed, shaking for 2 h at 4 °C with 50% v/v trichloroacetic acid and washed with distilled water. Cells left overnight to dry were stained with 0.4% w/v SRB in 1% v/v acetic acid (at room temperature for 30 min on a shaker) and then washed with 1% acetic acid to allow for the removal of the unbound dye. TRIS-HCl 10 mM, pH 7.4 was added to the cells and absorbance was measured at 495 nm as previously shown using a Glomax® Discover Microplate Reader (Promega, Madison, WI, USA). In combinatory assays, similar procedures were adopted and the CB2R antagonist SR144528 (1 µM) was added 1 h before the CB2 agonists (10, 20 and 40 µM) to SHSY5Y cells that were harvested as described above after 72 h of incubation.
# Figure 4 Inhibition of cell viability. The effect on cell viability by CB2R agonists was determined by sulforhodamine B (SRB) assays in SH-SY5Y and SK-N-BE cell lines. SH-SY5Y cells were treated with the compounds indicated in the figure for 24 h (A), 48 h (B), and 72 h (C) at the concentrations reported in the histograms. SK-N-BE cells were treated with the same compounds for 72 h (D). Figures report cell viability (mean of at least 3 independent experiments ± SEM) as percent of cell survival vs. untreated cells (considered as 100% of survival). […] The statistical significance was calculated with two-way ANOVA using Dunnett’s multiple comparisons test.
# SH-SY5Y cells [5] = experiment: SRB cell viability assay with pre-incubation of CB2R antagonist SR144528; format: cell-based, human; details: SR144528 1 µM added 1 h before, 72 h, agonists at 10, 20 and 40 µM
# Protocol: To address a CB2R-mediated mechanism, we tested FG158a, LV62, and FG160a at inhibitory concentrations in SH-SY5Y cells pre-incubated with the CB2R antagonist SR144528. After 72 h of treatment, we observed a reversion in cell viability at 20 and 40 µM of FG158a and FG160a in the presence of SR144528. The inhibitory effect of LV62 was reverted only at 40 µM (Figure 5).
# as §5, with “In combinatory assays, similar procedures were adopted and the CB2R antagonist SR144528 (1 µM) was added 1 h before the CB2 agonists (10, 20 and 40 µM) to SHSY5Y cells that were harvested as described above after 72 h of incubation.” left out
# Figure 5 CB2R–mediated effect on cell viability. […] Figures (A–C) report cell viability (mean of 3 independent experiments) expressed as absorbance (Abs). The statistical significance was calculated with two-way ANOVA using Tukey’s multiple comparisons test (* p ≤ 0.05).
# SH-SY5Y cells [6] = system: SH-SY5Y cells; parameters: method as in PMID 26842917; details: presumably via a CB2R-independent mechanism; cited from earlier work
# [7] = CHO cells expressing human CB2R, 10 μM FSK, 90 min
# [8] = CHO cells expressing human CB2R, 90 min
# T2 sequence (P21554 whole entry): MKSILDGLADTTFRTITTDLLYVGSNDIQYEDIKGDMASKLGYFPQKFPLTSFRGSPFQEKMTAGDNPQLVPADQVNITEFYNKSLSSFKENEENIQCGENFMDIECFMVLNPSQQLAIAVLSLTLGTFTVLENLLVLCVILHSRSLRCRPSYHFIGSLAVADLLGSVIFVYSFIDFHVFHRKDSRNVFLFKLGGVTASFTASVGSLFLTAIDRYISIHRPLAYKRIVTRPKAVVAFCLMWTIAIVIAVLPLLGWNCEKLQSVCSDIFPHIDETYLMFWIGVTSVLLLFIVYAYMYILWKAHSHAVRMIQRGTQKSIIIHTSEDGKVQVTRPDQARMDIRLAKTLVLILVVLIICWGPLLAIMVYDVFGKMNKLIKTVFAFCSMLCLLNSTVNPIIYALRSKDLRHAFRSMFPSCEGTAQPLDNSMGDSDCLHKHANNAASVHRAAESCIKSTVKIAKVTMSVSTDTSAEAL
# T1 sequence (P34972 whole entry): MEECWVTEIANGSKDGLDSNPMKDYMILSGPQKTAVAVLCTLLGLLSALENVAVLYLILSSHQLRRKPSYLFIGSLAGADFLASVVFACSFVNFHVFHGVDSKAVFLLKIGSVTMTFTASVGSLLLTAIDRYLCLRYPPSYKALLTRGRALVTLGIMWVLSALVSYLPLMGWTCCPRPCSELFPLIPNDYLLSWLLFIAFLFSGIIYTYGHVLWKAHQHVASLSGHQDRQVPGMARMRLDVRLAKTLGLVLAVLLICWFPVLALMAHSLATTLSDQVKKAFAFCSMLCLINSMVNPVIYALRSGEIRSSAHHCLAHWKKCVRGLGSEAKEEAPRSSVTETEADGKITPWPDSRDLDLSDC
Structure (SMILES),Ki (hCB2R [1]),"displacement of [3H]CP55,940 at hCB2R (hCB2R [1])","displacement of [3H]CP55,940 at hCB1R (hCB1R)",Ki (hCB1R; read-out: CB1R Ki),"modulation of cAMP response (hCB2R [2]; 10 μM FSK, 90 min)","cAMP Inhibition Emax (% CP55,940) ± S.E.M (hCB2R [2]; [7])","EC50 (hCB2R [2]; CHO cells expressing human CB2R, 10 μM FSK, 90 min, read-out: cAMP Inhibition EC50 (95% C.I.))",melting point,"β-Arrestin2 Recruitment Emax (% CP55,940) ± S.E.M (hCB2R [3]; [8])","EC50 (hCB2R [3]; CHO cells expressing human CB2R, 90 min, read-out: β-Arrestin2 Recruitment EC50 (95% C.I.))",effect on cell viability (SH-SY5Y cells [4]),IC50 (SH-SY5Y cells [4]),Ki (hCB1R),EC50 (hCB2R [2]),"reversion in cell viability in the presence of SR144528, agonist concentration (SH-SY5Y cells [5])",EC50 (hCB2R [3]),"β-arrestin2 recruitment (hCB2R [3]; CHO cells expressing hCB2R, 90 min)",effect on SH-SY5Y cell proliferation (SH-SY5Y cells [6])
"CC1CCC(NC(=O)c2cc3cccnc3n(CCCCCN=[N+]=[N-])c2=O)CC1 (stereo not drawn) [FG161a, 1-(5-azidopentyl)-N-(4-methylcyclohexyl)-2-oxo-1,2-dihydro-1,8-naphthyridine-3-carboxamide]",45 nM,"fully displaced [^3H]CP55,940","not able to displace [^3H]CP55,940",> 10000 nM,able to modulate the cAMP response,"78 ± 11 % CP55,940",760 nM,115 to 117 °C,"47 ± 1.8 % CP55,940",> 10000 nM,inhibited cell viability,27500 nM,–,–,–,–,–,–
"CC1CCC(NC(=O)c2cc3cccnc3n(CCCCCO)c2=O)CC1 (stereo not drawn) [LV62, reference compound]",37 nM,–,"not able to displace [^3H]CP55,940",–,–,"110 ± 8.8 % CP55,940",–,–,"65 ± 1.4 % CP55,940",–,inhibited cell viability,38100 nM,> 10000 nM,34 nM,only at 40,63 nM,produced an increase in the β-arrestin2 recruitment,–
"CC1CCC(NC(=O)c2cc3cccnc3n(CCCCCCl)c2=O)CC1 (stereo not drawn) [FG160a, 1-(5-chloropentyl)-N-(4-methylcyclohexyl)-2-oxo-1,2-dihydro-1,8-naphthyridine-3-carboxamide]",16.5 nM,"fully displaced [^3H]CP55,940","not able to displace [^3H]CP55,940",–,able to modulate the cAMP response,"90 ± 3.1 % CP55,940",–,124 to 126 °C,"41 ± 1.0 % CP55,940",–,inhibited cell viability,13200 nM,> 10000 nM,600 nM,–,> 10000 nM,–,–
CCCC(C)(C)c1ccc2c(c1)OC(C)(C)[C@@H]1CC=C(C)C[C@@H]21 [JWH-133],–,–,–,–,–,–,–,–,–,–,–,–,–,–,–,–,–,inhibits SH-SY5Y cell proliferation
